Source: patent US6150393A (priority 1999, dated 2000)

Legend:
[1] = system: human mutated 5HT2A receptor, AP-3; test: Receptor-mediated inositol phosphate (IP3) accumulation, AP-3; assay type: cell-based; details: 10 μM test compound, triplicate; control without test compound
Experimental: On day one, 1×10^7 293 cells per 150 mm plate were plated out. On day two, two reaction tubes were prepared (the proportions to follow for each tube are per plate): tube A was prepared by mixing 20 μg DNA (e.g., pCMV vector; pCMV vector AP-1 cDNA, etc.) in 1.2 ml serum free DMEM (Irvine Scientific, Irvine, Calif.); tube B was prepared by mixing 120 μl lipofectamine (Gibco BRL) in 1.2 ml serum free DMEM. Tubes A and B were then admixed by inversions (several times), followed by incubation at room temperature for 30-45 min. The admixture is referred to as the "transfection mixture". Plated 293 cells were washed with 1×PBS, followed by addition of 10 ml serum free DMEM. 2.4 ml of the transfection mixture was then added to the cells, followed by incubation for 4 hrs at 37° C./5% CO2. On day 3, cells were trypsinized and counted, followed by plating of 1×10^6 cells/well (poly D-lysine treated 12-well plates). Cells were permitted to adhere to the wells, followed by one wash with 1×PBS. Thereafter, 0.5 μCi ^3 H-inositol in 1 ml inositol-free DMEM was added per well. Protocol B.
On day 4, the cells were washed with 0.5 ml PBS and then 0.45 ml of assay medium was added containing inositol-free/serum free media, 10 μM pargyline, 10 mM lithium chloride, or 0.4 ml of assay medium and 50 ul of 10× ketanserin (ket) to a final concentration of 10 μM. The cells were then incubated for 30 minutes at 37° C. Then the cells were washed with 0.5 ml PBS and 200 ul of fresh/ice cold stop solution (1M KOH; 18 mM Na-borate; 3.8 mM EDTA) was added/well. The solution was kept on ice for 5-10 minutes or until the cells were lysed and then neutralized by 200 μl of fresh/ice cold neutralization sol. (7.5% HCL). The lysate was then transferred into 1.5 ml microcentrifuge tubes and 1 ml of chloroform/methanol (1:2) was added/tube. The solution was vortexed for 15 seconds and the upper phase was applied to a Biorad AG1-X8 anion exchange resin (100-200 mesh). The resin was washed with water and 0.9 ml of the upper phase was loaded onto the column. The column was washed with 10 mls of 5 mM myo-inositol and 10 ml of 5 mM Na-borate/60 mM Na-formate. The inositol trisphosphates were eluted into scintillation vials containing 10 ml of scintillation cocktail with 2 ml of 0.1 M formic acid/1 M ammonium formate. The columns were regenerated by washing with 10 ml of 0.1 M formic acid/3M ammonium formate and rinsed twice with dd H2 O and stored at room temperature in water.
Candidate compound identified in the assays of Examples 9a-9c were then evaluated for inositol phosphate accumulation, following the protocol of Example 5 ([…] expressing human mutated 5HT2A receptor, AP-3), modified as follows: tube A was prepared by mixing 16 μg DNA (e.g., pCMV vector; pCMV vector AP-1 cDNA, etc.) in 1.0 ml serum free DMEM (Irvine Scientific, Irvine, Calif.); tube B was prepared by mixing 60 μl lipofectamine (Gibco BRL) in 1.0 ml serum free DMEM. Tubes A and B were then admixed by inversions (several times), followed by incubation at room temperature for 30 min. The admixture is referred to as the "transfection mixture". Plated 293 cells were washed with 10 ml Serum Free DMEM, followed by addition of 11 ml Serum Free DMEM. 2.0 ml of the transfection mixture was then added to the cells, followed by incubation for 5 hrs at 37° C./5% CO2. On day 3, cells were trypsinized and counted, followed by plating of 1×10^6 cells/well (12-well plates). Cells were permitted to adhere to the wells for 8 hrs, followed by one wash with 1×PBS. Thereafter, 0.5 μCi ^3 H-inositol in 1 ml inositol-free DMEM was added per well.
On day 4, the cells were washed with 1.5 ml PBS and then 0.9 ml of assay medium was added containing inositol-free/serum free media, 10 μM pargyline, 10 mM lithium chloride, for 5 min in 37° C./5% CO2 followed by 100 μl addition of candidate compound diluted in the same material. The cells were then incubated for 120 minutes at 37° C. […]

[2] = assay type: in vivo, rat (male Sprague-Dawley); details: i.p.; total activity counts over 120 min after MK-801
Experimental: FIG. 7 provides a graphic summary of the reversal of MK-801-induced hyperactivity using 116081 (7A) and clozapine (7B). […] 116081 produced a significant reversal of the effect of MK-801 at a dose of 25 μmol/kg (10 mg/kg). Results are presented as total activity counts over the 120 min of exposure to the locomotor activity apparatus after administration of MK-801. Data (mean±SEM) were analyzed by ANOVA followed by Dunnett's test (n=6-8/group).
Because part of the symptomatology of schizophrenia may be related to altered glutamate transmission at the NMDA receptor, the reversal of MK-801-induced hyperlocomotor activity in rodents has been used routinely as an animal model for detecting potential antipsychotic activity (O'Neill et al., Pharmacology Biochem. Behav., 63: 237-243, 1999). Thus, this test was used to determine potential antipsychotic properties of 116081 in vivo.
Motor activity was assessed using automated locomotor activity cages as described above (Example 11(A), supra.). Male Sprague-Dawley rats (250-350 g body weight) were administered test compounds (i.p.) and placed in the locomotor activity cages for 30 min of habituation. Following habituation,animals were administered MK-801 (0.5 μmol/kg=0.17 mg/kg, s.c.) and then immediately placed back into the locomotor activity cages, and activity was measured for 120 min. A reversal of MK-801-induced motor activity (as shown by a significant […] of ambulation) in rats is considered to be predictive of the ability of the test compound to reverse psychotic symptoms.

[3] = Bar catalepsy test in rats (extrapyramidal side effect analysis); assay type: in vivo, rat (male Sprague-Dawley); details: 0.8 mg/kg
[4] = target: T1, endogenous human 5-HT2C receptor (Homo sapiens, UniProt P28335); details: data not shown
T1 sequence (P28335 33-458): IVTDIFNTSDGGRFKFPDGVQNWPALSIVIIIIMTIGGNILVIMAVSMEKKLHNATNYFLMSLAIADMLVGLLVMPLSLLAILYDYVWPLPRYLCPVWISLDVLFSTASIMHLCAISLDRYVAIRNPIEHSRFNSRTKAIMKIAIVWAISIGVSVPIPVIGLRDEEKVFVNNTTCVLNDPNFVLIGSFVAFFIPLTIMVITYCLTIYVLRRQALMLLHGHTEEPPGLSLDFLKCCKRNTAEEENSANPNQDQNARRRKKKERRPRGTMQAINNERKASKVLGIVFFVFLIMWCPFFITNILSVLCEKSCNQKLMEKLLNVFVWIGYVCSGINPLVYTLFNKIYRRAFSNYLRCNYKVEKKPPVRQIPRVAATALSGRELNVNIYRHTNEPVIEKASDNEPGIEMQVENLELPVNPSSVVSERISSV

Cn1cc(Br)c(-c2cccc(NC(=O)Nc3ccc(SC(F)(F)F)cc3)c2)n1 [Compound 116139, {[3-(4-bromo-1-methylpyrazol-3-yl)phenyl]amino}-N-[4-(trifluoromethylthio)phenyl]carboxamide]
IP3 % of Control [1]: 12%

Cn1cc(Br)c(-c2cccc(NC(=O)Nc3ccccc3F)c2)n1 [Compound 116144, {[3-(4-bromo-1-methylpyrazol-3-yl)phenyl]amino}-N-(2-fluorophenyl)carboxamide]
IP3 % of Control [1]: 12%

Cn1cc(Br)c(-c2cccc(NC(=O)Nc3ccccc3C(N)=O)c2)n1 [Compound 116145, 2-({[3-(4-bromo-1-methylpyrazol-3-yl)phenyl]amino}carbonylamino)benzamide]
IP3 % of Control [1]: 31%

Cn1cc(Br)c(-c2cccc(NC(=O)Nc3ccc(C#N)cc3)c2)n1 [Compound 116147, {[3-(4-bromo-1-methylpyrazol-3-yl)phenyl]amino}-N-(4-cyanophenyl)carboxamide]
IP3 % of Control [1]: 12%

Cn1cc(Br)c(-c2cccc(NC(=O)Nc3ccccc3C#N)c2)n1 [Compound 116148, {[3-(4-bromo-1-methylpyrazol-3-yl)phenyl]amino}-N-(2-cyanophenyl)carboxamide]
IP3 % of Control [1]: 30%

CN1CCN(C2=Nc3cc(Cl)ccc3Nc3ccccc32)CC1 [clozapine, reference compound]
attenuation of MK-801-induced hyperactivity (ambulations) [2]: dose-dependently attenuated MK801-induced hyperactivity

O=C(CCCN1CCC(O)(c2ccc(Cl)cc2)CC1)c1ccc(F)cc1 [haloperidol, reference compound]
induction of catalepsy [3]: induces catalepsy in rats
time spent on the bar [3]: significant increase in time spent on the bar

CN1CCN2c3ccccc3Cc3ccccc3C2C1 (centres unmarked) [mianserin]
inhibition of serotonin-stimulated [35S]GTPγS binding ([4]; 30 μM mianserin): completely inhibited
effect on serotonin response of [35S]GTPγS binding [4]: inhibits this response
effect on basal constitutive binding of [35S]GTPγS ([4]; no agonist): partial inverse agonist
